Data reported in US20130172294A1, “Treatment with VB-201” (Vascular Biogenics Ltd., priority 2010, published 2013).

Legend:
[1] = Safety and tolerability of single dose (Example 1); assay type: in vivo, human; settings: single oral dose 1-50 mg
Text: Safety and tolerability of VB-201 was judged by evaluating the incidence of abnormal findings in the following measurements: vital signs: systolic and diastolic blood pressure, heart rate, respiratory rate, body temperature; physical examination; 12-lead electrocardiogram; laboratory tests of blood samples for: complete blood count, prothrombin time/partial thromboplastin time, LDL- and HDL-cholesterol, total cholesterol, triglycerides, glucose, blood urea nitrogen, sodium, potassium, creatinine, calcium, phosphorus, creatinine phosphokinase, lactate dehydrogenase, aspartate transaminase, alanine transaminase, γ-glutamyl transferase, alkaline phosphatase, protein, albumin, total bilirubin, total IgM and IgG antibodies, interleukin-12/23 p40, tumor necrosis factor-α, and interleukin-6, as well as routine urinalysis; and all adverse events, whether or not considered serious, and whether or not considered related to the investigational agent, according to the criteria for Good Clinical Practice. Treatment-emergent adverse events were defined as any adverse event that started on or after administration of the first dose of VB-201, and no more than 30 days after administration of the last dose, or are ongoing at the time of the first dose and worsened in severity or frequency during treatment. […] All subjects were healthy male volunteers. Five cohorts of six subjects each received a single dose of 1, 3, 10, 30 or 50 mg VB-201. 10 subjects received a placebo. The VB-201 was formulated in gelatin capsules enterocoated with Eudragit®.

[2] = Repeated daily dose pharmacokinetics of VB-201 in plasma, 14 days (Example 2); assay type: in vivo, human; settings: for T1/2 (rec. ph.): recovery phase after Day 14
Description: Determination of VB-201 concentrations in plasma was performed using an HPLC-MS/MS (high performance liquid chromatography with tandem mass spectrometric detection) assay. Calibration was for a range of from 5 to 500 ng/ml for low doses and from 50 to 5000 ng/ml for high doses. Pharmacokinetic parameters were estimated by using a non-compartmental method, except for the AUC (area under curve), which was determined using a (log-) trapezoidal rule as the area above the previous trough level. […] The subjects were all healthy volunteers. […] 10 subjects received a placebo. The VB-201 was formulated in gelatin capsules enterocoated with Opadry AMB and Acryleze White. The 20 mg dose was originally in the form of 20 mg capsules. […] Pharmacokinetic blood samples for VB-201 determination were collected on Day 0 and Day 14, prior to dosing and 2, 4, 6, 8, 10, 12, 16 and 24 hours after dosing. […] Pharmacokinetic samples were also collected on Day 12 and Day 13, before dosing. Concentration-time curves were constructed for a time period of 24 hours on each of days 1 and 14. In addition, urine samples from the subjects receiving 30 mg VB-201 were assayed for VB-201 by high performance liquid chromatography-tandem mass spectrometry. […] The limit of detection was 1 ng/ml.

[3] = system: adjuvant-induced arthritis; settings: in vivo animal model; cited from earlier work

- multi-day accumulation relative to a single dose, estimated from elimination data ([2]; continued once per day dosing): approximately 4 times
- AUC(0-24) ([2]; daily 5 mg, Day 1): 1731 ng·h/mL
- AUC(0-infinity) ([2]; daily 5 mg, Day 1): 6005 ng·h/mL
- AUMC (0-24) ([2]; daily 5 mg, Day 1): 23670 hours^2*ng/ml
- AUMC (0-infinity) ([2]; daily 5 mg, Day 1): 341432 hours^2*ng/ml
- Cl/F (0-24) ([2]; daily 5 mg, Day 1): 3.92 L/h
- Cmax ([2]; daily 5 mg, Day 1): 117.34 ng/mL
- Kc ([2]; daily 5 mg, Day 1): 0.0250 h⁻¹
- MTT ([2]; daily 5 mg, Day 1): 14.51 h
- T1/2 ([2]; daily 5 mg, Day 1): 32.18 h
- Tmax ([2]; daily 5 mg, Day 1): 10 h
- AUC(0-24) ([2]; daily 5 mg, Day 14): 6238 ng·h/mL
- AUC(0-infinity) ([2]; daily 5 mg, Day 14): 15913 ng·h/mL
- AUMC (0-24) ([2]; daily 5 mg, Day 14): 71173 hours^2*ng/ml
- AUMC (0-infinity) ([2]; daily 5 mg, Day 14): 821875 hours^2*ng/ml
- Accum. (accumulation) ([2]; daily 5 mg, Day 14): 4.75
- Cl/F (0-24) ([2]; daily 5 mg, Day 14): 0.90 L/h
- Cmax ([2]; daily 5 mg, Day 14): 340.31 ng/mL
- Kc ([2]; daily 5 mg, Day 14): 0.0278 h⁻¹
- MTT ([2]; daily 5 mg, Day 14): 11.41 h
- T1/2 ([2]; daily 5 mg, Day 14): 30.95 h
- Tmax ([2]; daily 5 mg, Day 14): 9.67 h
- T1/2 (rec. ph.) ([2]; daily 5 mg): 44.17 h
- AUC(0-24) ([2]; daily 10 mg, Day 1): 3494 ng·h/mL
- AUC(0-infinity) ([2]; daily 10 mg, Day 1): 9912 ng·h/mL
- AUMC (0-24) ([2]; daily 10 mg, Day 1): 45924 hours^2*ng/ml
- AUMC (0-infinity) ([2]; daily 10 mg, Day 1): 440602 hours^2*ng/ml
- Cl/F (0-24) ([2]; daily 10 mg, Day 1): 4.92 L/h
- Cmax ([2]; daily 10 mg, Day 1): 227.92 ng/mL
- Kc ([2]; daily 10 mg, Day 1): 0.0285 h⁻¹
- MTT ([2]; daily 10 mg, Day 1): 14.44 h
- T1/2 ([2]; daily 10 mg, Day 1): 27.09 h
- Tmax ([2]; daily 10 mg, Day 1): 11.33 h
- AUC(0-24) ([2]; daily 10 mg, Day 14): 12617 ng·h/mL
- AUC(0-infinity) ([2]; daily 10 mg, Day 14): 36183 ng·h/mL
- AUMC (0-24) ([2]; daily 10 mg, Day 14): 148375 hours^2*ng/ml
- AUMC (0-infinity) ([2]; daily 10 mg, Day 14): 2596242 hours^2*ng/ml
- Accum. (accumulation) ([2]; daily 10 mg, Day 14): 5.06
- Cl/F (0-24) ([2]; daily 10 mg, Day 14): 0.87 L/h
- Cmax ([2]; daily 10 mg, Day 14): 665.80 ng/mL
- Kc ([2]; daily 10 mg, Day 14): 0.0267 h⁻¹
- MTT ([2]; daily 10 mg, Day 14): 11.72 h
- T1/2 ([2]; daily 10 mg, Day 14): 34.27 h
- Tmax ([2]; daily 10 mg, Day 14): 11 h
- T1/2 (rec. ph.) ([2]; daily 10 mg): 35.77 h
- AUC(0-24) ([2]; daily 20 mg, Day 1): 4186 ng·h/mL
- AUC(0-infinity) ([2]; daily 20 mg, Day 1): 12721 ng·h/mL
- AUMC (0-24) ([2]; daily 20 mg, Day 1): 58323 hours^2*ng/ml
- AUMC (0-infinity) ([2]; daily 20 mg, Day 1): 752013 hours^2*ng/ml
- Cl/F (0-24) ([2]; daily 20 mg, Day 1): 5.21 L/h
- Cmax ([2]; daily 20 mg, Day 1): 294.23 ng/mL
- Kc ([2]; daily 20 mg, Day 1): 0.0307 h⁻¹
- MTT ([2]; daily 20 mg, Day 1): 14.04 h
- T1/2 ([2]; daily 20 mg, Day 1): 30.91 h
- Tmax ([2]; daily 20 mg, Day 1): 12.33 h
- AUC(0-24) ([2]; daily 20 mg, Day 14): 20553 ng·h/mL
- AUC(0-infinity) ([2]; daily 20 mg, Day 14): 47828 ng·h/mL
- AUMC (0-24) ([2]; daily 20 mg, Day 14): 229287 hours^2*ng/ml
- AUMC (0-infinity) ([2]; daily 20 mg, Day 14): 2070644 hours^2*ng/ml
- Accum. (accumulation) ([2]; daily 20 mg, Day 14): 4.90
- Cl/F (0-24) ([2]; daily 20 mg, Day 14): 1.46 L/h
- Cmax ([2]; daily 20 mg, Day 14): 1275.65 ng/mL
- Kc ([2]; daily 20 mg, Day 14): 0.0338 h⁻¹
- MTT ([2]; daily 20 mg, Day 14): 11.16 h
- T1/2 ([2]; daily 20 mg, Day 14): 25.09 h
- Tmax ([2]; daily 20 mg, Day 14): 7.33 h
- T1/2 (rec. ph.) ([2]; daily 20 mg): 30.89 h
- AUC(0-24) ([2]; daily 30 mg, Day 1): 6409 ng·h/mL
- AUC(0-infinity) ([2]; daily 30 mg, Day 1): 67386 ng·h/mL
- AUMC (0-24) ([2]; daily 30 mg, Day 1): 92749 hours^2*ng/ml
- AUMC (0-infinity) ([2]; daily 30 mg, Day 1): 11648110 hours^2*ng/ml
- Cl/F (0-24) ([2]; daily 30 mg, Day 1): 8.55 L/h
- Cmax ([2]; daily 30 mg, Day 1): 416.58 ng/mL
- Kc ([2]; daily 30 mg, Day 1): 0.0220 h⁻¹
- MTT ([2]; daily 30 mg, Day 1): 14.73 h
- T1/2 ([2]; daily 30 mg, Day 1): 72.30 h
- Tmax ([2]; daily 30 mg, Day 1): 19 h
- AUC(0-24) ([2]; daily 30 mg, Day 14): 30555 ng·h/mL
- AUC(0-infinity) ([2]; daily 30 mg, Day 14): 64120 ng·h/mL
- AUMC (0-24) ([2]; daily 30 mg, Day 14): 358861 hours^2*ng/ml
- AUMC (0-infinity) ([2]; daily 30 mg, Day 14): 2456341 hours^2*ng/ml
- Accum. (accumulation) ([2]; daily 30 mg, Day 14): 7.07
- Cl/F (0-24) ([2]; daily 30 mg, Day 14): 1.09 L/h
- Cmax ([2]; daily 30 mg, Day 14): 1821.40 ng/mL
- Kc ([2]; daily 30 mg, Day 14): 0.0333 h⁻¹
- MTT ([2]; daily 30 mg, Day 14): 11.78 h
- T1/2 ([2]; daily 30 mg, Day 14): 23.64 h
- Tmax ([2]; daily 30 mg, Day 14): 10 h
- T1/2 (rec. ph.) ([2]; daily 30 mg): 32.78 h
- VB-201 in urine samples ([2]; daily 30 mg, HPLC-MS/MS, limit of detection 1 ng/ml): No traces of VB-201 could be detected
- average accumulation rate ([2]; daily 5-30 mg, Day 14): approximately 5
Compound: CCCCCCCCCCCCCCCCOCC(COP(=O)([O-])OCC[N+](C)(C)C)OCCCCC(=O)O (stereo not drawn) [VB-201, 1-hexadecyl-2-(4′-carboxybutyl)-glycerol-3-phosphocholine]
- electrocardiogram findings [1]: None of the subjects which received VB-201 had clinically significant electrocardiogram findings
- safety profile [1]: comparable safety profile of VB-201 to a placebo
- serious adverse events [1]: No serious adverse events occurred
- induction or inhibition of metabolism ([2]; daily 5-30 mg): does not show significant induction or inhibition of metabolism
- efficacy in adjuvant-induced arthritis [3]: effective
